According to US10676446B2, “Bicyclic quinazolinone derivatives” (Hoffmann-La Roche Inc., priority 2015, dated 2020):

The molecules below were run against human ATX (autotaxin, ENPP2), His-tagged (Homo sapiens (Human), UniProt Q13822) (assay: Human ATX enzyme inhibition assay (fluorescence quenching, MR121 substrate)). Details: 30 nM ATX, 1 μM MR121 substrate, 30° C., pH 8.0.
Format: biochemical
Summary of the method: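 His-tagged human ATX (30 nM final) preincubated 15 min at 30 °C with serially diluted compound in Tris-HCl pH 8.0 buffer with Ca2+, Mg2+ and 0.01% Triton X-100. MR121-labelled fluorescence-quenched substrate then added (1 μM final) for a further 15 min at 30 °C; fluorescence read-out.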

Structure (SMILES) | IC50
CN(Cc1ccc(C#N)c(Cl)c1)C(=O)Cn1cnc2ccc(C3CCN(C(=O)C4CC(F)C4)CC3)cc2c1=O (stereo not shown) [Example 138] | 3 nM
CN(Cc1ccc(C#N)c(Cl)c1)C(=O)Cn1cnc2ccc(C3CCN(C(=O)CCC#N)CC3)cc2c1=O [Example 155, N-[(3-Chloro-4-cyanophenyl)methyl]-2-[6-[1-(3-cyanopropanoyl)piperidin-4-yl]-4-oxoquinazolin-3-yl]-N-methylacetamide] | 153 nM
CC(=O)N1CCN(c2ccc3ncn(CC(=O)NCc4ccc(C(F)(F)F)nc4)c(=O)c3c2)CC1 [Example 16] | 207 nM
CC(=O)N1CCC(c2ccc3ncn(CC(=O)N(C)Cc4ccc(Cl)c(OC(F)(F)F)c4)c(=O)c3c2)CC1 [Example 128, 2-[6-(1-Acetylpiperidin-4-yl)-4-oxoquinazolin-3-yl]-N-[[4-chloro-3-(trifluoromethoxy)phenyl]methyl]-N-methylacetamide] | 15 nM
CC(=O)N1CCN(c2ccc3ncn(CC(=O)NC(CC(=O)NCc4ccccc4)c4ccc(C(F)(F)F)cc4)c(=O)c3c2)CC1 (stereo not shown) [Example 8] | 279 nM
CN(Cc1ccc(Cl)c(Cl)c1)C(=O)Cn1cnc2ccc(N3CCN(CC(=O)N4CCOCC4)CC3)cc2c1=O [Example 111] | 35 nM
CN(Cc1ccc(Cl)c(C#N)c1)C(=O)Cn1cnc2ccc(C3CCN(CC4CCOC4)CC3)cc2c1=O (stereo not shown) [Example 144, N-[(4-Chloro-3-cyanophenyl)methyl]-N-methyl-2-[4-oxo-6-[1-(oxolan-3-ylmethyl)piperidin-4-yl]quinazolin-3-yl]acetamide] | 86 nM
CC(=O)N1CCCN(c2ccc3ncn(CC(=O)N(C)Cc4ccc(Cl)c(C#N)c4)c(=O)c3c2)CC1 [Example 121] | 20 nM
CC(C)OCC(=O)N1CCC(c2ccc3ncn(CC(=O)N(C)Cc4ccc(C#N)c(Cl)c4)c(=O)c3c2)CC1 [Example 135] | 1 nM
CC(=O)N1CCN(c2ccc3nc(C)n(CC(=O)NCc4ccc(Cl)c(Cl)c4)c(=O)c3c2)CC1 [Example 151, 2-[6-(4-Acetylpiperazin-1-yl)-2-methyl-4-oxoquinazolin-3-yl]-N-[(3,4-dichlorophenyl)methyl]acetamide] | 21 nM
O=C(Cn1cnc2ccc(N3CCN(C(=O)C4CCOCC4)CC3)cc2c1=O)NCc1ccc(Cl)c(Cl)c1 [Example 66] | 190 nM
CC(=O)N1CCN(c2ccc3ncn(CC(=O)N(CCC(=O)O)Cc4ccc(Cl)c(Cl)c4)c(=O)c3c2)CC1 [Example 54, 3-[[2-[6-(4-Acetylpiperazin-1-yl)-4-oxoquinazolin-3-yl]acetyl]-[(3,4-dichlorophenyl)methyl]amino]propanoic acid] | 831 nM
CC(=O)N1CCN(c2ccc3ncn(CC(=O)NCc4ccc(Cl)c(F)c4)c(=O)c3c2)CC1 [Example 24] | 33 nM
O=C(Cn1cnc2ccc(N3CCN(CC(O)CO)CC3)cc2c1=O)NCc1ccc(Cl)c(Cl)c1 (stereo not shown) [Example 95] | 68 nM
COCC(=O)N1CCC(c2ccc3ncn(CC(=O)N(Cc4ccc(Cl)c(Cl)c4)C4CC4)c(=O)c3c2)CC1 [Example 146, N-Cyclopropyl-N-[(3,4-dichlorophenyl)methyl]-2-[6-[1-(2-methoxyacetyl)piperidin-4-yl]-4-oxoquinazolin-3-yl]acetamide] | 1 nM
COCCN1CCN(c2ccc3ncn(CC(=O)N(C)Cc4ccc(Cl)c(Cl)c4)c(=O)c3c2)CC1 [Example 105] | 59 nM
